#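 Five compound concentrations were applied to cells in 96-well plates for 48 hours; endpoints were derived by simple linear interpolation of the resulting dose-response curve. GI50 marks 50% less growth. The concentration for full growth arrest is given as TGI.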
# Assays:
# Assay in all cases: NCI anticancer screen, dose series, 48 h
# [1] = system: HT29 colon
# [2] = system: TK-10 renal
# [3] = system: MALME-3M melanoma
# [4] = system: NCI-H460 lung
# [5] = system: EKVX NSCLC
# [6] = system: MCF7 breast
# [7] = system: KM12 colon
# [8] = system: UO-31 renal
# [9] = system: T-47D breast
# [10] = system: BT-549 breast
# [11] = system: M14 melanoma
# [12] = system: SNB-75 CNS
# [13] = system: RXF 393 renal
# [14] = system: PC-3 prostate
# [15] = system: CCRF-CEM leukemia
# [16] = system: SF-539 CNS
# [17] = system: MOLT-4 leukemia
# [18] = system: 786-0 renal
# [19] = system: SK-MEL-2 melanoma
# [20] = system: HS 578T breast
# [21] = system: COLO 205 colon
# [22] = system: A549 NSCLC
# [23] = system: A498 renal
# [24] = system: HOP-62 NSCLC
# [25] = system: SW-620 colon
# [26] = system: OVCAR-3 ovarian
# [27] = system: SK-MEL-5 melanoma
# [28] = system: OVCAR-5 ovarian
# [29] = system: K-562 leukemia
# [30] = system: UACC-257 melanoma
# [31] = system: OVCAR-8 ovarian
# [32] = system: ACHN renal
# [33] = system: SF-268 CNS
# [34] = system: HCT-116 colon
# [35] = system: HOP-92 NSCLC
# [36] = system: NCI-H23 lung
# [37] = system: HCT-15 colon
# [38] = system: DU-145 prostate
# [39] = system: SK-OV-3 ovarian
# [40] = system: HCC-2998 colon
# [41] = system: CAKI-1 renal
# [42] = system: SR leukemia
# [43] = system: UACC-62 melanoma
# [44] = system: RPMI-8226 leukemia
# [45] = system: SNB-19 CNS
# [46] = system: MDA-MB-435
# [47] = system: SN12C renal
# [48] = system: SK-MEL-28 melanoma
# [49] = system: U251 CNS
# [50] = system: NCI/ADR-RES ovarian
# [51] = system: NCI-H522 lung
# [52] = system: MDA-MB-231 breast
# [53] = system: SF-295 CNS
# [54] = system: HL-60(TB) leukemia
# [55] = system: IGROV1 ovarian
# [56] = system: NCI-H226 lung
# [57] = system: OVCAR-4 ovarian
smiles,measurement,setting,value
COc1cccc(/C=C/C(=O)c2ccc(SC)cc2)c1OC,GI50,[1],9.97 µM
same,TGI,[1],48.8 µM
same,GI50,[2],22.5 µM
same,TGI,[2],49.5 µM
same,GI50,[3],16.7 µM
same,TGI,[3],34.7 µM
same,GI50,[4],17.9 µM
same,TGI,[4],36.2 µM
same,GI50,[5],18.8 µM
same,TGI,[5],35.6 µM
same,GI50,[6],11 µM
same,TGI,[6],35.8 µM
same,GI50,[7],16.6 µM
same,TGI,[7],33.4 µM
same,GI50,[8],17 µM
same,TGI,[8],31.1 µM
same,GI50,[9],11.6 µM
same,TGI,[9],35.2 µM
same,GI50,[10],20.8 µM
same,TGI,[10],40.5 µM
same,GI50,[11],17.2 µM
same,TGI,[11],31.1 µM
same,GI50,[12],14.6 µM
same,TGI,[12],30.7 µM
same,GI50,[13],3.9 µM
same,TGI,[13],11.7 µM
same,GI50,[14],17 µM
same,TGI,[14],43.8 µM
same,GI50,[15],14.2 µM
same,TGI,[15],97.5 µM
same,GI50,[16],20 µM
same,TGI,[16],39.6 µM
same,GI50,[17],8.11 µM
same,TGI,[17],61.6 µM
same,GI50,[18],14.2 µM
same,TGI,[18],28.2 µM
same,GI50,[19],23.3 µM
same,TGI,[19],40.7 µM
same,GI50,[20],25.3 µM
same,TGI,[20],56.6 µM
same,GI50,[21],22.6 µM
same,TGI,[21],45 µM
same,GI50,[22],12.1 µM
same,TGI,[22],25.5 µM
same,GI50,[23],11.3 µM
same,TGI,[23],23.8 µM
same,GI50,[24],19.3 µM
same,TGI,[24],34.2 µM
same,GI50,[25],18.8 µM
same,TGI,[25],35.7 µM
same,GI50,[26],16.4 µM
same,TGI,[26],32 µM
same,GI50,[27],16.4 µM
same,TGI,[27],30.3 µM
same,GI50,[28],18.7 µM
same,TGI,[28],34.2 µM
same,GI50,[29],4.97 µM
same,TGI,[29],64.2 µM
same,GI50,[30],15.7 µM
same,TGI,[30],29.3 µM
same,GI50,[31],12.7 µM
same,TGI,[31],25.6 µM
same,GI50,[32],17.2 µM
same,TGI,[32],33.7 µM
same,GI50,[33],20.2 µM
same,TGI,[33],42.3 µM
same,GI50,[34],4.35 µM
same,TGI,[34],15.4 µM
same,GI50,[35],21.6 µM
same,TGI,[35],54.1 µM
same,GI50,[36],14.6 µM
same,TGI,[36],28.2 µM
same,GI50,[37],10.4 µM
same,TGI,[37],30.3 µM
same,GI50,[38],20.4 µM
same,TGI,[38],40.6 µM
same,GI50,[39],23.5 µM
same,TGI,[39],40.6 µM
same,GI50,[40],16.8 µM
same,TGI,[40],30.4 µM
same,GI50,[41],18.4 µM
same,TGI,[41],35.9 µM
same,GI50,[42],4.43 µM
same,TGI,[42],79.5 µM
same,GI50,[43],10.8 µM
same,TGI,[43],23.8 µM
same,GI50,[44],5.6 µM
same,TGI,[44],> 100 µM
same,GI50,[45],16.2 µM
same,TGI,[45],32 µM
same,GI50,[46],17.8 µM
same,TGI,[46],35.3 µM
same,GI50,[47],14.7 µM
same,TGI,[47],29.2 µM
same,GI50,[48],20 µM
same,TGI,[48],36.7 µM
same,GI50,[49],10.4 µM
same,TGI,[49],24 µM
same,GI50,[50],16.2 µM
same,TGI,[50],38.5 µM
same,GI50,[51],19.2 µM
same,TGI,[51],38.9 µM
same,GI50,[52],17.3 µM
same,TGI,[52],36.4 µM
CC1CCN(Cc2ccc(NC(=O)c3cc4ccc5cccnc5c4[nH]3)cc2)CC1,GI50,[1],3 µM
same,TGI,[1],14.5 µM
same,GI50,[2],8.56 µM
same,TGI,[2],23.2 µM
same,GI50,[3],2.05 µM
same,TGI,[3],3.72 µM
same,GI50,[4],4.16 µM
same,TGI,[4],28.1 µM
same,GI50,[6],2.48 µM
same,TGI,[6],14.7 µM
same,GI50,[7],5.31 µM
same,TGI,[7],35.8 µM
same,GI50,[8],2.05 µM
same,TGI,[8],8.18 µM
same,GI50,[9],6.81 µM
same,TGI,[9],28.3 µM
same,GI50,[10],10.8 µM
same,TGI,[10],24.3 µM
same,GI50,[11],2.05 µM
same,TGI,[11],4.08 µM
same,GI50,[53],1.98 µM
same,TGI,[53],4.45 µM
same,GI50,[54],3.16 µM
same,TGI,[54],13.1 µM
same,GI50,[12],10.8 µM
same,TGI,[12],27.8 µM
same,GI50,[55],6.15 µM
same,TGI,[55],54.1 µM
same,GI50,[13],2.18 µM
same,TGI,[13],6.26 µM
same,GI50,[14],5.1 µM
same,TGI,[14],23.7 µM
same,GI50,[16],1.94 µM
same,TGI,[16],4.01 µM
same,GI50,[17],3 µM
same,TGI,[17],9.85 µM
same,GI50,[18],2.71 µM
same,TGI,[18],8.46 µM
same,GI50,[19],2.45 µM
same,TGI,[19],6.2 µM
same,GI50,[20],4.09 µM
same,TGI,[20],28.3 µM
same,GI50,[23],2.42 µM
same,TGI,[23],12.9 µM
same,GI50,[24],5.27 µM
same,TGI,[24],33.9 µM
same,GI50,[25],3.4 µM
same,TGI,[25],16.6 µM
same,GI50,[26],7.83 µM
same,TGI,[26],39.2 µM
same,GI50,[28],11.3 µM
same,TGI,[28],35.3 µM
same,GI50,[29],2.53 µM
same,TGI,[29],9.07 µM
same,GI50,[31],10.6 µM
same,TGI,[31],29.5 µM
same,GI50,[32],5.47 µM
same,TGI,[32],23.1 µM
same,GI50,[33],7.07 µM
same,TGI,[33],40.9 µM
same,GI50,[34],4.18 µM
same,TGI,[34],19.6 µM
same,GI50,[35],4.76 µM
same,TGI,[35],20.5 µM
same,GI50,[36],14.4 µM
same,TGI,[36],37.7 µM
same,GI50,[37],3.07 µM
same,TGI,[37],18.5 µM
same,GI50,[38],8.79 µM
same,TGI,[38],> 100 µM
same,GI50,[39],6.98 µM
same,TGI,[39],42.5 µM
same,GI50,[40],2.55 µM
same,TGI,[40],5.8 µM
same,GI50,[41],6.58 µM
same,TGI,[41],31 µM
same,GI50,[42],2.29 µM
same,TGI,[42],6.65 µM
same,GI50,[56],23.5 µM
same,TGI,[56],73.4 µM
same,GI50,[43],2.17 µM
same,TGI,[43],4.54 µM
same,GI50,[44],2.58 µM
same,TGI,[44],6.99 µM
same,GI50,[45],13.1 µM
same,TGI,[45],27.6 µM
same,GI50,[46],1.99 µM
same,TGI,[46],4.24 µM
same,GI50,[47],7.9 µM
same,TGI,[47],29.4 µM
same,GI50,[57],16.5 µM
same,TGI,[57],> 100 µM
same,GI50,[48],1.79 µM
same,TGI,[48],3.49 µM
same,GI50,[49],2.8 µM
same,TGI,[49],10.3 µM
same,GI50,[50],17.3 µM
same,TGI,[50],68.9 µM
same,GI50,[52],5.59 µM
same,TGI,[52],23.2 µM

# From PubChem BioAssay (NCI)
